Reference: publication PMC10703812, “Understanding the molecular mechanisms of odorant binding and activation of the human OR52 family” (Nature Communications, 2023)
Several values for one entry are separate records, joined by “and”; a condition that tells them apart may be missing. Identical values can stand only once.

Columns and labels:
[1] = system: OR52cs R265A; experiment: CRE luciferase assay in Hana3A cells, mutant; type: cell-based, human; conditions: 100 µM carboxylic acid; Fig.S7a, single experiments
Procedure: (§1) For cAMP assay, CRE luciferase assay, and surface ELISA, the full-length OR52cs construct was cloned into the pcDNA3.1 vector. The Lucy signal sequence and FLAG peptide sequence were added to the N-terminus. Mutant constructs were generated by site-directed mutagenesis. For BRET assay, eYFP was added at the C-terminus of OR52cs with a GGGGS linker. Rluc was added to Gα for resonance partner (after L99 for Gαs, and I100 for Gαolf, respectively, with GGGGS linker back and forth).
48 h after infection, cells were treated with odorants and incubated at 37 °C for 4 h. […] All values were divided by the Renilla luciferase activity to normalize the effect of cell confluence. All data were analyzed using GraphPad Prism 9.4.1.

[2] = system: OR52cs V158F; experiment: cAMP signaling assay, mutant; type: cell-based, human; conditions: for cAMP response: Fig.S8b source data, single experiments
Procedure: as §1
(§2) Hana3A cells were seeded on 96-well white microplates and transfected with OR52cs or the corresponding mutants and cAMP sensor (Promega). The medium was exchanged with CO2-independent medium (Gibco) supplemented with 0.375 mg ml^−1 D-luciferin (Nanolight) 48 h after infection, and cells were incubated in the dark at 20 °C for 2 h. Basal luminescence was detected using a Tristar 2 LB 942 multimode reader (Berthold) until it reached a plateau. Subsequently, various concentrations of odorants and forskolin (Sigma-Aldrich) were added to each well, and luminescence was measured again. Data were analyzed and plotted using GraphPad Prism 9.4.1.

[3] = system: OR52cs V158F/V209M; experiment: cAMP signaling assay, mutant; type: cell-based, human; conditions: for cAMP response: Fig.S8b source data, single experiments
Procedure: as §1, §2

[4] = system: OR52cs; experiment: cAMP signaling assay (cAMP sensor) in Hana3A cells; type: cell-based, human; conditions: single experiments
Procedure: as §1, with “forth). […]” for “forth).”
as §2

[5] = system: OR52L1; design: method as in earlier work; conditions: cited from earlier work
[6] = system: OR52cs; experiment: CRE luciferase assay in Hana3A cells; type: cell-based, human; conditions: for relative fold of CRE luciferase activity: Fig.S7b, single experiments
Procedure: as §1
Hana3A cells were seeded on 96-well white microplates (SPL) and transfected with plasmids encoding CRE-luciferase, OR52cs or R265^6.59A mutant, Renilla luciferase, RTP1S, and Ric8b at a […] ratio 24 h after seeding. 48 h after infection, cells were treated with odorants and incubated at 37 °C for 4 h. Luminescence was measured using a Tristar 2 LB 942 multimode reader (Berthold). All values were divided by the Renilla luciferase activity to normalize the effect of cell confluence. All data were analyzed using GraphPad Prism 9.4.1.

[7] = odorant 3.0303e-5 M, Fig.1a source data
[8] = odorant 0.0001 M, Fig.1a source data
[9] = odorant 9.18274e-6 M, Fig.1a source data
[10] = odorant 9.18274e-8 M, Fig.S8b source data
[11] = odorant 9.18274e-7 M, Fig.S8b source data
[12] = odorant 9.18274e-6 M, Fig.S8b source data
[13] = odorant 3.0303e-5 M, Fig.S8b source data
[14] = odorant 0.0001 M, Fig.S8b source data
[15] = odorant 0.001 M, Fig.S8b source data

Row | Structure (SMILES) | relative fold (luciferase activity over DMSO) [1] | cAMP response ([2]; odorant 9.18274e-8 M) | cAMP response ([2]; odorant 9.18274e-7 M) | cAMP response ([2]; odorant 9.18274e-6 M) | cAMP response ([2]; odorant 3.0303e-5 M) | cAMP response ([2]; odorant 0.0001 M) | cAMP response ([2]; odorant 0.001 M) | cAMP response ([3]; odorant 9.18274e-8 M) | cAMP response ([3]; odorant 9.18274e-7 M) | cAMP response ([3]; odorant 9.18274e-6 M) | cAMP response ([3]; odorant 3.0303e-5 M) | cAMP response ([3]; odorant 0.0001 M) | cAMP response ([3]; odorant 0.001 M) | cAMP response [4, 9] | cAMP response [4, 10] | cAMP response [4, 11] | cAMP response [4, 12] | cAMP response [4, 13] | cAMP response [4, 14] | cAMP response [4, 15] | also measured
1 | CCCCCCC(=O)O [Heptanoate, heptanoate] | 1.17 fold and 1.091 fold and 1.293 fold and 0.9952 fold | 0.8685% and 0.5114% and 0.9157% | 1.104% and 0.7302% and 1.422% | 3.442% and 2.688% and 4.371% | 27.9975% and 25.6918% and 43.6578% | 66.0899% and 63.5108% and 78.243% | 94.8324% and 85.8407% and 105.113% | 0.3154% and 0.3231% and 0.3938% | 4.347% and 1.257% and 3.311% | 29.4811% and 22.451% and 26.2109% | 75.795% and 74.3485% and 82.8548% | 83.9682% and 91.5635% and 102.817% | 81.746% and 93.3745% and 90.7212% | – | – | – | – | – | – | – | downstream signal / selectivity (in words) ([2]; Supplementary Fig. 8): enhanced selectivity; cAMP response [4, 7]: 56.3478 and 75.8757 and 80.5266; cAMP response [4, 8]: 81.4095 and 85.4775 and 102.977; cAMP response ([4]; odorant 0.001 M, Fig.1a source data): 96.609 and 80.1017 and 111.088
2 | CCCCCCCCC(=O)O [Nonanoate, nonanoate] | 1.195 fold and 0.996 fold and 1.289 fold and 1.267 fold | – | – | – | – | – | – | – | – | – | – | – | – | 36.8538 and 30.3132 and 25.7666 | – | – | – | – | – | – | cAMP response [4, 7]: 65.8721 and 78.3812 and 58.155; cAMP response [4, 8]: 84.5947 and 88.3315 and 72.5955
3 | CCCCCC(=O)O [Hexanoate, hexanoate] | 1.1154 fold and 1.251 fold and 1.361 fold and 1.012 fold | 0.5855% and -0.5118% | 0.5361% and -0.697% | 0.7501% and -0.4246% | 1.164% and -0.1819% | 1.41% and -0.4498% | 3.85% and 2.176% | 1.222% and -0.2583% and 0.8037% | 3.048% and 0.3713% and 1.148% | 18.0149% and 8.5338% and 10.0807% | 41.8588% and 26.1015% and 26.6027% | 60.5576% and 50.8798% and 56.2545% | 83.4195% and 80.8044% and 89.7505% | – | – | – | – | – | – | – | response / preference (in words) ([3]; Supplementary Fig. 8): increased responses
4 | CCCCCCCCCCC(=O)O [Undecanoate, undecanoate] | 1.911 fold and 1.478 fold and 1.422 fold and 1.276 fold | – | – | – | – | – | – | – | – | – | – | – | – | 17.2544 and 14.2907 and 24.4976 | – | – | – | – | – | – | –
5 | CCCCC(=O)O [Pentanoate, pentanoate] | – | 0.9264% and 0.2953% and 1.001% | 0.9435% and 0.3179% and 1.755% | 1.032% and 0.4577% and 1.961% | 1.125% and 0.847% and 2.468% | 1.499% and 1.023% and 3.422% | 5.439% and 4.505% and 7.762% | -0.5993% and 0.7689% and 1.106% | -0.2116% and 0.634% and 0.6548% | 0.981% and 2.2804% and 2.576% | 3.113% and 5.861% and 4.955% | 9.203% and 15.4507% and 12.8173% | 39.0499% and 48.7069% and 47.2503% | – | -0.162% and 0.6359% and -0.04254% | 0.07645% and 0.3953% and 0.2459% | 0.2758% and 0.7357% and 0.01532% | 0.2715% and 0.6901% and 0.4212% | 0.1615% and 1.39% and 0.4292% | 2.769% and 2.642% and 1.705% | response of OR52L1 (in words) [5]: responsive
6 | CCC(=O)O [Propionate, propionate] | – | 0.2434% and 0.9095% | -0.2446% and -2.828% | 0.996% and -2.758% | -1.498% and -2.916% | -0.9959% and -2.168% | 2.021% and 1.439% | 0.9618% and -0.01314% and -0.2398% | 1.572% and -0.593% and -0.7182% | 1.935% and -0.7307% and 0.6877% | 2.83% and 0.05137% and 0.2753% | 2.508% and 0.3655% and 0.1006% | 6.973% and 2.2608% and 3.165% | – | -0.2092% and 0.1117% and 0.5205% | -0.1831% and 0.1609% and 0.123% | -0.2867% and 0.1185% and 0.09817% | 0.2368% and 0.05491% and -0.002619% | -0.3215% and 0.04237% and 0.3227% | 0.5115% and 1.283% and 1.204% | –
7 | CCCC(=O)O [Butyrate] | – | 0.537% and 0.1319% and 1.733% | 0.488% and 0.3268% and 1.1839% | 0.5541% and 0.2838% and 1.329% | 0.4886% and 0.5179% and 1.414% | 0.8581% and 0.2707% and 1.963% | 2.495% and 1.981% and 6.452% | 0.4134% and 1.119% and 0.2589% | 0.6599% and 0.9287% and 0.2324% | 1.238% and 1.86% and 0.7353% | 1.067% and 2.455% and 1.672% | 1.838% and 4.182% and 3.8607% | 12.4605% and 15.8218% and 16.2328% | – | -0.08428% and 0.1653% and 0.2939% | -0.5369% and 0.4001% and -0.04745% | 0.134% and 0.6883% and 0.4284% | 0.1103% and 0.05302% and 0.2786% | -0.1073% and 0.8927% and 0.1591% | 1.5929% and 1.31% and 1.1069% | –
8 | CCCCCCCCO [Octanol, octanol] | – | – | – | – | – | – | – | – | – | – | – | – | – | – | – | – | – | – | – | – | activation of OR52cs (in words) ([6]; Supplementary Fig. 7): failed to activate; relative fold of CRE luciferase activity ([6]; odorant 10 μM): 1.663 fold and 1.557 fold and 1.263 fold and 1.4999 fold; relative fold of CRE luciferase activity ([6]; odorant 50 μM): 1.747 fold and 1.809 fold and 1.706 fold and 1.694 fold; relative fold of CRE luciferase activity ([6]; odorant 100 μM): 1.917 fold and 1.93 fold and 1.901 fold and 2.061 fold; relative fold of CRE luciferase activity ([6]; odorant 250 μM): 1.931 fold and 2.053 fold and 2.136 fold and 2.342 fold; relative fold of CRE luciferase activity ([6]; odorant 500 μM): 1.887 fold and 2.082 fold and 2.24 fold and 2.823 fold
9 | CCCCCCCCCC(=O)O [Decanoate, decanoate] | 1.3086 fold and 1.135 fold and 1.747 fold and 1.1432 fold | – | – | – | – | – | – | – | – | – | – | – | – | 23.4129 and 25.1996 and 45.8933 | – | – | – | – | – | – | –
